Source: patent US5801035A, “L-amino acid oxidase” (Novo Nordisk A/S, priority 1993, dated 1998)

Test system: L-amino acid oxidase
Assay: Substrate specificity: specific activity and Km (Lineweaver-Burk) with various L-amino acids, H2O2 detected with ABTS and CiP
Type: biochemical, Trichoderma harzianum
Details: phosphate buffer pH 8.5, room temperature; for Km: Lineweaver-Burk plots; for Specific Activity: 20 minutes
Experimental: The specific activity of the purified L-amino acid oxidase was 16 U/mg determined in a 50 mM phosphate buffer at pH 8.5, 20° C. with 1 mM L-arginine as substrate. One unit of enzyme will form 1 μmole of hydrogen peroxide per minute. The amount of protein is quantified assuming that a solution of the L-amino acid oxidase having an optical density of 1 determined at 280 nm contains 1 mg of protein/ml. The L-amino acid oxidase yield was approx. 50 mg of pure protein per litre of culture medium.
In the following characterization experiments, detection of H2 O2 was carried out using a Coprinus cinereus peroxidase (CiP), obtained according to WO 92/16634, at a level of 4.5 PODU/ml, and 0.4 mM ABTS in phosphate buffer at pH 7.0. The hydrogen peroxide concentrations were determined relative to a freshly prepared hydrogen peroxide standard solution.
The activity of the L-amino acid oxidase was determined with various L-amino acids as substrates. The L-amino acid oxidase was incubated with substrate in a phosphate buffer at pH 8.5 and room temperature for 20 minutes. Generated hydrogen peroxide was detected using ABTS and CiP as described above. The specific activity was determined as described in Example 2 above.
Km values for the various substrates were determined by plotting values of 1/v versus 1/s (Lineweaver-Burk plots).

Row | SMILES | Km | Specific Activity (Substrate Conc. 1 (m/M)) | Specific Activity (Substrate Conc. 10 (m/M)) | Specific Activity (Substrate Conc. 80 (m/M))
1 | N=C(N)NCCC[C@H](N)C(=O)O [L-arginine] | 1.2 mM | 16 U/mg | 30 U/mg | 
2 | NCCCC[C@H](N)C(=O)O [L-lysine] | 0.2 mM | 7 U/mg |  | 
3 | N[C@@H](Cc1ccccc1)C(=O)O [L-phenylalanine] | 25 mM |  |  | 25 U/mg
4 | NC(=O)C[C@H](N)C(=O)O [L-asparagine] | 20 mM |  |  | 7 U/mg
5 | CC(C)C[C@H](N)C(=O)O [L-leucine] | 40 mM |  |  | 16 U/mg
6 | CSCC[C@H](N)C(=O)O [L-methionine] | 15 mM |  |  | 8 U/mg
